Assay results published in publication PMC9238401, “Peptide Conjugates Derived from flg15, Pep13, and PIP1 That Are Active against Plant-Pathogenic Bacteria and Trigger Plant Defense Responses” (Applied and Environmental Microbiology, 2022).
Non-standard residues stand in square brackets, D forms with d. Residues, ends and D or L forms follow the SMILES beside them. No end group written: not given here.

What was measured:
[1] = tested on: Pseudomonas syringae pv. syringae EPS94; test: In vitro growth inhibition (MIC); format: cell-based; details: TSB, 25°C, 48 h, OD 600 nm (Bioscreen C), three replicates, experiment repeated twice; MIC given as range
How it was run: (§1)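 Strains were grown 24 h at 25°C on agar, then suspended in sterile water at 10^8 CFU mL^−1 and mixed with peptide dilutions in Trypticase soy broth. Plates were incubated at 25°C with shaking and OD600 read hourly for 48 h. MIC is the lowest concentration with no growth at 48 h.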

[2] = tested on: Xanthomonas arboricola pv. pruni CFBP5563; test: In vitro growth inhibition (MIC); format: cell-based; details: TSB, 25°C, 48 h, OD 600 nm (Bioscreen C), three replicates, experiment repeated twice; MIC given as range
How it was run: as §1

[3] = tested on: Xanthomonas fragariae Xf349-9A; test: In vitro growth inhibition (MIC); format: cell-based; details: TSB, 25°C, 48 h, OD 600 nm (Bioscreen C), three replicates, experiment repeated twice; MIC given as range
How it was run: as §1

[4] = tested on: Pseudomonas syringae pv. actinidiae Psa3700.1.1; test: In vitro growth inhibition (MIC); format: cell-based; details: TSB, 25°C, 48 h, OD 600 nm (Bioscreen C), three replicates, experiment repeated twice; MIC given as range
How it was run: as §1

[5] = tested on: Erwinia amylovora PMV6076; test: In vitro growth inhibition (MIC); format: cell-based; details: TSB, 25°C, 48 h, OD 600 nm (Bioscreen C), three replicates, experiment repeated twice; MIC = lowest concentration with no growth, given as range
How it was run: as §1

[6] = tested on: tobacco leaves; test: Effect of peptide infiltration on tobacco leaves (phytotoxicity); format: in vivo
How it was run: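 Phytotoxicity was scored as necrotic lesion diameter 48 h post-infiltration. Each peptide was infiltrated at 50, 150 or 250 μM into fully expanded tobacco leaf mesophyll, on ≥3 leaves from different plants, alongside water and same-molar melittin controls.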

[7] = tested on: Xanthomonas axonopodis pv. vesicatoria 2133-2; details: TSB, 25°C, 48 h, OD 600 nm (Bioscreen C), three replicates, experiment repeated twice; MIC given as range
How it was run: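 Bacteria grown 24 h (48 h for Xanthomonas axonopodis, X. fragariae) at 25°C, suspended at 10^8 CFU mL^−1, mixed with peptide dilutions in TSB.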

[8] = tested on: plant-pathogenic bacteria (E. amylovora, X. arboricola pv. pruni, X. fragariae, X. axonopodis pv. vesicatoria, P. syringae pv. actinidiae, P. syringae pv. …); details: 24 h
[9] = HPLC retention time as indicator of relative hydrophobicity; format: physicochemical; details: chromatographic, Kromasil 100 C18 (4.6 mm × 40 mm, 3 μm), linear gradient 2 to 100% B over 12 min, 1 mL/min; A 0.1% aqueous TFA, B 0.1% TFA in CH3CN; used as indicator of relative hydrophobicity
Protocol: The parameters related to the structure of the peptide conjugates (sequence, charge, hydrophobic ratio [HR], and HPLC retention time), as well as their physicochemical properties (grand average hydropathicity [GRAVY] and hydrophobic moment [<μH>]) obtained from the online programs ProtParam (Expasy server) and HeliQuest are included in Table 1.
Peptides were analyzed under standard analytical HPLC conditions. Method A: peptides were analyzed with a Dionex liquid chromatography instrument composed of a UV/Vis Dionex UVD170U detector, a P680 Dionex pump, an ASI-100 Dionex automatic injector, and Chromeleon 6.60 software. Detection was performed at a wavelength of 220 nm. Solvent A was 0.1% aqueous trifluoroacetic acid (TFA), and solvent B was 0.1% TFA in CH3CN. Analyses were carried out with a Kromasil 100 C18 (4.6 mm × 40 mm, 3 μm) column with a linear gradient of 2 to 100% B over 7 min at a flow rate of 1 mL/min. Method B: peptides were analyzed with a 1260 Infinity II liquid chromatography instrument (Agilent Technologies) composed of a diode array detector HS, a quaternary pump VL, a 1260 vial sampler, and OpenLab CDS ChemStation software. Analyses were carried out with a Kromasil 100 C18 (4.6 mm × 40 mm, 3 μm) column with a linear gradient of 2 to 100% B over 12 min at a flow rate of 1 mL/min.

[10] = tested on: horse erythrocytes; details: TRIS buffer pH 7.2, 1 h, 37°C, absorbance 540 nm, relative to melittin 100 μM, ± confidence interval (α = 0.05)
How it was run: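 Hemolysis measured as absorbance at 540 nm of supernatant, expressed as percent of melittin-lysed control after buffer subtraction. Compound solutions (750, 500, 300, 100 μM, Tris-buffered saline pH 7.2) were combined 1:1 with washed horse red cells for 1 h, 37°C, shaking.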

[11] = 100 μL infiltrated into mesophyll, lesion diameter 48 h after infiltration, at least three leaves, ± confidence interval (α = 0.05)

Row | Molecule | MIC, Pss [1] | MIC, Xap [2] | MIC, Xf [3] | MIC, Psa [4] | MIC, Ea [5] | Size of the lesions in infiltrated tobacco leaves at 50 μM ([6]; in vivo) | Size of the lesions in infiltrated tobacco leaves at 150 μM ([6]; in vivo) | Size of the lesions in infiltrated tobacco leaves at 250 μM ([6]; in vivo) | MIC, Xav [7] | MIC against all the bacteria tested (span over the six pathogens) [8] | tR (min), HPLC retention time (method B) [9] | Percent hemolysis at 50 μM [10] | Percent hemolysis at 150 μM [10] | Percent hemolysis at 250 μM [10] | Percent hemolysis at 375 μM [10] | MIC against four pathogens [8] | Size of the lesions in infiltrated tobacco leaves at 50 μM [6, 11] | Size of the lesions in infiltrated tobacco leaves at 150 μM [6, 11] | Size of the lesions in infiltrated tobacco leaves at 250 μM [6, 11]
1 | CC[C@H](C)[C@H](NC(=O)[C@H](CCCCN)NC(=O)[C@H](CCCCN)NC(=O)[C@@H](Cc1ccccc1)NC(=O)[C@H](CC(C)C)NC(=O)[C@H](CCCCN)NC(=O)[C@@H](N)CCCCN)C(=O)N[C@@H](CC(C)C)C(=O)N[C@@H](CCCCN)C(=O)N[C@@H](Cc1ccc(O)cc1)C(=O)N[C@@H](CC(C)C)C(=O)N[C@H](C(=O)N[C@@H](Cc1c[nH]c2ccccc12)C(=O)N[C@@H](CC(N)=O)C(=O)N[C@@H](CCC(N)=O)C(=O)N1CCC[C@H]1C(=O)N[C@H](C(=O)N[C@@H](CCCNC(=N)N)C(=O)NCC(=O)N[C@@H](Cc1ccccc1)C(=O)N[C@@H](CCCCN)C(=O)N[C@H](C(=O)N[C@@H](Cc1ccc(O)cc1)C(=O)N[C@@H](CCC(=O)O)C(=O)O)C(C)C)C(C)C)C(C)C [BP143-Pep13] (H-KKL[dF]KKILKYLVWNQPVRGFKVYE-OH) | 1.6 to 3.1 µM | 1.6 to 3.1 µM | 6.2 to 12.5 µM | 0.8 to 1.6 µM | 1.6 to 3.1 µM | 0.10 ± 0.12 cm | 0.44 ± 0.16 cm | 0.60 ± 0.25 cm | 1.6 to 3.1 µM | 0.8 to 12.5 µM | 5.62 min | 5 ± 1.9% | 9 ± 0.4% | 16 ± 1.9% | 29 ± 0.9% |  |  |  | 
2 | KKLFKKILKYLVWNQPVRGFKVYE [BP100-Pep13] | 1.6 to 3.1 µM | 1.6 to 3.1 µM | 3.1 to 6.2 µM | 0.8 to 1.6 µM | 0.8 to 1.6 µM | 0.04 ± 0.08 cm | 0.32 ± 0.11 cm | 0.42 ± 0.10 cm | 1.6 to 3.1 µM |  | 5.53 min | 5 ± 0.3% | 12 ± 1.1% | 20 ± 2.4% | 30 ± 3.2% | 0.8 to 3.1 µM |  |  | 
3 | KKLFKKILKKLVWNQPVRGFKVYE [BP16-Pep13] | 1.6 to 3.1 µM | 0.8 to 1.6 µM | 1.6 to 3.1 µM | 1.6 to 3.1 µM | 6.2 to 12.5 µM | 0.23 ± 0.13 cm | 0.45 ± 0.12 cm | 1.02 ± 0.32 cm | 1.6 to 3.1 µM | 0.8 to 12.5 µM | 5.12 min | 1 ± 0.4% | 1 ± 0.3% | 1 ± 0.5% | 2 ± 0.4% |  |  |  | 
4 | VWNQPVRGFKVYEKKLFKKILKYL-NH2 [Pep13-BP100] | 6.2 to 12.5 µM | 0.8 to 1.6 µM | 6.2 to 12.5 µM | 3.1 to 6.2 µM | 6.2 to 12.5 µM | 0.26 ± 0.08 cm | 0.56 ± 0.13 cm | 0.70 ± 0.15 cm | 0.8 to 1.6 µM | 0.8 to 12.5 µM | 6.14 min | 9 ± 1.0% | 25 ± 2.4% | 45 ± 9.0% | 49 ± 9.2% |  |  |  | 
5 | CC[C@H](C)[C@H](NC(=O)[C@H](CCCCN)NC(=O)[C@H](CCCCN)NC(=O)[C@@H](Cc1ccccc1)NC(=O)[C@H](CC(C)C)NC(=O)[C@H](CCCCN)NC(=O)[C@H](CCCCN)NC(=O)[C@H](CCC(=O)O)NC(=O)[C@H](Cc1ccc(O)cc1)NC(=O)[C@@H](NC(=O)[C@H](CCCCN)NC(=O)[C@H](Cc1ccccc1)NC(=O)CNC(=O)[C@H](CCCNC(=N)N)NC(=O)[C@@H](NC(=O)[C@@H]1CCCN1C(=O)[C@H](CCC(N)=O)NC(=O)[C@H](CC(N)=O)NC(=O)[C@H](Cc1c[nH]c2ccccc12)NC(=O)[C@@H](N)C(C)C)C(C)C)C(C)C)C(=O)N[C@@H](CC(C)C)C(=O)N[C@@H](CCCCN)C(=O)N[C@@H](Cc1ccc(O)cc1)C(=O)N[C@@H](CC(C)C)C(N)=O [Pep13-BP143] (H-VWNQPVRGFKVYEKKL[dF]KKILKYL-NH2) | 6.2 to 12.5 µM | 0.8 to 1.6 µM | 3.1 to 6.2 µM | 3.1 to 6.2 µM | 6.2 to 12.5 µM | 0.16 ± 0.15 cm | 0.52 ± 0.14 cm | 0.62 ± 0.13 cm | 0.8 to 1.6 µM | 0.8 to 12.5 µM | 5.97 min | 5 ± 0.5% | 8 ± 0.3% | 10 ± 0.6% | 17 ± 0.4% |  |  |  | 
6 | H-FKLFKKILKVLKKVVFWVKFK-NH2 [BP13-KSLW] | 12.5 to 25 µM | 1.6 to 3.1 µM | 1.6 to 3.1 µM | 6.2 to 12.5 µM | > 50 µM |  |  |  | 1.6 to 3.1 µM |  | 7.02 min | 80 ± 11.2% | 90 ± 7.3% | 100 ± 8.4% | 99 ± 8.4% |  | 0.56 ± 0.23 cm | 1.00 ± 0.25 cm | 0.92 ± 0.36 cm
